The results in this text go back to ChEMBL document CHEMBL3525927, “Measurement of unbound drug exposure in brain: modeling of pH partitioning explains diverging results between the brain slice and brain homogenate methods” (Drug Metab Dispos, 2011).

For data set [1], the system named is Brain. Particulars: rat, 5 h, 0.1 µM; call rule not given here.
Data set [2] deals with Brain. Nature of the data set: Drug uptake in Sprague-Dawley rat brain slices in presence of 1 uM of decynium-22. Type of data set: ADME, tissue-based.
A further data set in a line: in vivo. Particulars: Sprague-Dawley, rat.
The next data set is described as follows: in vitro. Particulars: Sprague-Dawley, rat, brain homogenate.
The test system of data set [3] is Brain. In words: Unbound volume of distribution in Sprague-Dawley rat brain slices at 100 nM after 5 hrs in presence of 10 uM of cyclosporine. Type of data set: ADME, tissue-based. Particulars: 0.1 µM.
For data set [4], the system named is Brain. Nature of the data set: Drug uptake in Sprague-Dawley rat brain slices in presence of 50 nM of monensin. The format is ADME, tissue-based.
Data set [5] has as its system Brain. In words: Drug uptake in Sprague-Dawley rat brain slices at 100 nM after 5 hrs in presence of 10 uM of cyclosporine. The format is ADME, tissue-based. Particulars: 0.1 µM.
Data set [6] has as its system Brain. Particulars: rat, in vivo, 5 h, 0.1 µM.
Description: Drug uptake in Sprague-Dawley rat brain slices at 100 nM after 5 hrs in presence of 10 uM of fumitremorgin-C and 20 uM of MK-571
Data set [7] has as its system Brain. Particulars: rat, in vivo, 5 h, 0.1 µM. This is another data set of the same source.
Description: Drug uptake in Sprague-Dawley rat brain slices at 100 nM after 5 hrs in presence of 20 uM of MK-571
Data set [8] is described as follows: Dissociation constant, pKa of the basic compound by capillary electrophoresis-mass spectrometry analysis. The format is physicochemical.
Data set [9] relates to Brain. Particulars: rat, in vivo, 5 h, 0.1 µM. The source holds these as a separate data set.
Description: Drug uptake in Sprague-Dawley rat brain slices at 100 nM after 5 hrs in presence of 10 uM of fumitremorgin-C
Data set [10] relates to Brain. Particulars: Sprague-Dawley, rat, brain homogenate, 5 µM.
Data set [11] deals with Brain. Nature of the data set: Drug uptake in Sprague-Dawley rat brain slices in presence of 50 pM to 50 nM of monensin. The format is ADME, tissue-based.

Description for physchem: Dissociation constant, pKa of the acidic compound by capillary electrophoresis-mass spectrometry analysis

Turning to `C=C[C@H]1C[N+]2(C)CC[C@H]1C[C@@H]2[C@@H](O)c1ccnc2ccc(OC)cc12`, the Vdu in the data set with Brain [1] stood at 4.6 mL/g. Moreover, the Compound recovery result in the data set with Brain [2] was “Not Active”; in the data set with Brain [4] it was “Active”. The Kp uu in “in vivo” (brain and plasma) amounted to 1.06. Besides, the fraction unbound at 5 µM in “in vitro” worked out at 0.23. In addition, the “Unbound brain volume of distribution” value in the data set on Brain [3] is given as “Active”.

Take `Cc1c(O)cccc1C(=O)N[C@@H](CSc1ccccc1)[C@H](O)CN1C[C@H]2CCCC[C@H]2C[C@H]1C(=O)NC(C)(C)C`: the Vdu in the data set with Brain [1] worked out at 860 mL/g. In the data set with Brain [5], the Compound recovery entry was “Not Active”. The same compound yielded a Kp uu in “in vivo” (brain and plasma) of 0.62. The fraction unbound at 5 µM in “in vitro” turned out to be 0.00072. The compound also displayed a pKa in the data set “physchem” of 6.3. Besides, the “Unbound brain volume of distribution” value in the data set with Brain [3] was “Active”.

As to `O=C1c2c(O)ccc(O)c2C(=O)c2c(NCCNCCO)ccc(NCCNCCO)c21` [MITOXANTRONE], the Compound recovery result in the data set on Brain [6], with Brain [7] and in the data set on Brain [9] was “Active” in each case. Further, the Vdu in the data set with Brain [1] turned out to be 1757 mL/g. Also, the pKa in [8] was determined as 3.2; in the data set “physchem”, 8.4. In the data set “in vivo” (brain and plasma), the Kp uu came to 8.01. In “in vitro”, this compound showed a fraction unbound at 5 µM of 0.0046.

Regarding `CO[C@@]1(NC(=O)C(C(=O)O)c2ccc(O)cc2)C(=O)N2C(C(=O)O)=C(CSc3nnnn3C)CO[C@@H]21` (some centres not stated) [MOXALACTAM], the Vdu with Brain [1] (in vivo) turned out to be 0.46 mL/g. The compound further showed a pKa in [8] of 2.9. In “in vivo” (brain), the Kp uu came out at 0.46. In addition, the Fu in the data set with Brain [10] is 12.

`CC(C)NCC(O)COc1cccc2ccccc12` (configuration not stated) [PROPRANOLOL]: the Vdu in the data set with Brain [1] came out at 112 mL/g. Further, the Compound recovery entry with Brain [11] is “Not Active”. The compound also yielded a fraction unbound at 5 µM in “in vitro” of 0.029.

Consider `CC[N+](CC)(CC)CC` [TETRYLAMMONIUM], for which the Vdu in the data set with Brain [1] (in vivo) worked out at 9 mL/g. The figures for the Compound recovery entry in the data set with Brain [2] and in the data set with Brain [4] were “Not Active” and “Active”, respectively. This compound also registered a Kp uu in the data set “in vivo” (brain) of 8.95. The compound further returned a fraction unbound at 5 µM in the data set “in vitro” of 1.

In general, fraction unbound refers to free concentration divided by total concentration. The low end stands for extensive binding, the high end for weak binding. The term pKa denotes the negative logarithm of the acid dissociation constant. Low values mean a stronger acid or weaker base, high ones a weaker acid or stronger base.
